Data as given in patent publication US20200352905A1, “6-(2,4-DICHLOROPHENYL)-5-[4-[(3S)-1-(3-FLUOROPROPYL)PYRROLIDIN-3-YL]OXYPHENYL]-8,9-DIHYDRO-7H-BENZO[7]ANNULENE-2-CARBOXYLIC ACID FOR USE IN METASTATIC OR ADVANCED BREAST CANCER PATIENTS” (SANOFI, priority 2019, published 2020).
Entries after “also recorded” stand apart in the source; their conditions may differ.

Tests used:
[1] = system: ER-positive and HER2-negative advanced breast cancer; assay: TED14856 Part B: antitumor activity per RECIST v1.1 by Independent Central Review
Description: ORR: antitumor activity as documented by tumor response (CR or PR) defined by RECIST v1.1 determined by Independent Central Review (ICR).
The signal extinction between baseline and on study treatment ^18FES-PET scans constitute the PD readout of the ER engagement. No ^18FES-PET or FDG PET/CT imaging is performed in Part B.
Patients with an early progression as per RECIST v1.1 or who died from disease progression are evaluable for response.

[2] = Phase 1/2 study TED14856 Part A (dose escalation): safety, DLT, TEAEs; type: in vivo
Description: This is an open-label, non-comparative, dose escalation and dose expansion, safety, efficacy, PK and PD evaluation study of compound (1) administered orally as monotherapy.
Dose escalation is initiated with a once daily (QD) schedule with a starting dose of 20 mg/day. Dose escalation is expected to proceed according to the Table A below. Intra-patient dose escalation is not permitted.
Part A of this study is designed using the 3+3 concept: 3 to 6 patients are treated at each dose level, depending on DLTs observed in the first 3 patients. If one of the first 3 evaluable patients experiences DLT during Cycle 1, this cohort is expanded with a total of up to 6 patients. If less than 1 out of 3 patients or less than 2 out of 6 patients experience DLTs at a given dose level, the dose escalation is proceeded to the next dose level.
For the QD regimen, during Cycle 1, one dose is taken on Day 1 in fasting condition, no dose on Day 2 and repeated administration starts from Day 3. On Day 3 only, the dose is taken in fed condition for a food effect evaluation, and then all subsequent administrations are taken in fasted condition, and at approximately the same time each day (±3 hours). From the conclusions drawn with the initial QD dose regimen, patients treated with other dose regimens are allowed to take Compound (1) in fasted or fed condition. For the BID regimen, the 600 mg dose is split in two drug administrations: 300 mg taken two times a day 12 hours apart (i.e. 2×300 mg)±1 hour with or without food (with one dose only taken in the morning on Day 1, no dose on Day 2 and then repeated BID dosing from Day 3).
Incidence of study treatment-related DLTs at Cycle 1 (Day 1 to Day 28). DLT is defined as the occurrence of any of the following treatment-emergent adverse events (TEAEs) related to the study therapy using NCI-CTCAE (v4.03): • Any Grade ≥3 non-hematological toxicity, except: • Grade 3 nausea and vomiting resolving to Grade ≤1 within 48 hours, with or without adequate antiemetic treatment, • Grade 3 diarrhea, if controlled with adequate antidiarrheal therapy and lasting less than 48 hours. • Any Grade ≥3 hematological toxicity, except • Grade 3 anemia, • Grade 4 neutropenia <7 days, • Grade 3 neutropenia without fever or infection, • Grade 3 thrombocytopenia without bleeding. • Any elevated total serum bilirubin >2×ULN. • Any toxicity related to study treatment, resulting in omission of the study treatment for 7 days or more during Cycle 1. • A TEAE that in the opinion of the study committee is possibly or probably study treatment-related and is of potential clinical significance such that further dose escalation would expose patients to unacceptable risk.
These TEAEs are considered as study treatment-related in the absence of evidence to the contrary and if not related to disease progression. If multiple toxicities are seen, the presence of DLT will be based on the most severe experienced toxicity. At the end of Cycle 1, each patient must be assessed by the Investigator as to whether or not the patient experienced DLT, and this information must be recorded within the appropriate screen of the electronic case report forms (eCRFs) and an electronic DLT notification (either DLT or not) is sent to the Sponsor. Patients can continue the treatment after resolution (Grade 1) of the adverse event (AE) or to their baseline status. Patients need to complete at least 75% of the intended doses at Cycle 1 to be evaluable and shall have ^18FES-PET scans evaluable at baseline and between Day 11 and Day 15 to be evaluable for DLTs in Part A.
Safety population includes all patients exposed to at least one dose of the study treatment.
Study treatment-related DLTs occurring during Cycle 1 are assessed and analyzed on the DLT-evaluable population. In addition, AEs meeting DLT criteria occurring in any additional cycle are assessed and analyzed on the safety population. […]

O=C(O)c1ccc2c(c1)CCCC(c1ccc(Cl)cc1Cl)=C2c1ccc(O[C@H]2CCN(CCCF)C2)cc1 [compound (1), 6-(2,4-dichlorophenyl)-5-[4-[(3S)-1-(3-fluoropropyl)pyrrolidin-3-yl]oxyphenyl]-8,9-dihydro-7H-benzo[7]annulene-2-carboxylic acid]
Complete Response (CR) ([1]; 400 mg, N=46, by ICR): 0 n
Clinical Benefit Rate (CBR) assessed by ICR ([1]; ESR1 mutated patients (3/19)): 15.8%
Clinical Benefit Rate (CBR) assessed by ICR ([1]; patients with wild-type ESR1 (9/26)): 34.6%
Patients with related TEAE: Urinary tract infection ([2]; Part A, N=16): 0 n
maximum tolerated dose (MTD) ([2]; Part A, up to 600 mg QD): not reached; also recorded: no MTD observed
patients who died during study period ([2]; Part A, 3 disease progression, 1 unknown reason): 4 patients
patients with serious TEAEs ([2]; Part A, all considered not associated with compound (1)): 3 patients
Patients with Gr3 TEAE: Abdominal pain upper ([2]; female, human, in vivo): 0 n
Patients with Gr3 TEAE: Arthralgia ([2]; female, human, in vivo): 0 n
Patients with Gr3 TEAE: Asthenia ([2]; female, human, in vivo): 0 n
Patients with Gr3 TEAE: Constipation ([2]; female, human, in vivo): 0 n
Patients with Gr3 TEAE: Cough ([2]; female, human, in vivo): 0 n
Patients with Gr3 TEAE: Decreased appetite ([2]; female, human, in vivo): 0 n
Patients with Gr3 TEAE: Diarrhea ([2]; female, human, in vivo): 0 n
Patients with Gr3 TEAE: Dry skin ([2]; female, human, in vivo): 0 n
Patients with Gr3 TEAE: Dysgeusia ([2]; female, human, in vivo): 0 n
Patients with Gr3 TEAE: Hot flush ([2]; female, human, in vivo): 0 n
Patients with Gr3 TEAE: Hypertension ([2]; female, human, in vivo): 0 n
Patients with Gr3 TEAE: Hypoaesthesia ([2]; female, human, in vivo): 0 n
Patients with Gr3 TEAE: Musculoskeletal chest pain ([2]; female, human, in vivo): 0 n
Patients with Gr3 TEAE: Myalgia ([2]; female, human, in vivo): 0 n
Patients with Gr3 TEAE: Nasopharyngitis ([2]; female, human, in vivo): 0 n
Patients with Gr3 TEAE: Nausea ([2]; female, human, in vivo): 0 n
Patients with Gr3 TEAE: Night sweat ([2]; female, human, in vivo): 0 n
Patients with Gr3 TEAE: Pain ([2]; female, human, in vivo): 0 n
Patients with Gr3 TEAE: Photophobia ([2]; female, human, in vivo): 0 n
Patients with Gr3 TEAE: Rash ([2]; female, human, in vivo): 0 n
Patients with Gr3 TEAE: Upper respiratory tract infection ([2]; female, human, in vivo): 0 n
Patients with Gr3 TEAE: Vomiting ([2]; female, human, in vivo): 0 n
Patients with related Gr3 TEAE: ALL ([2]; female, human, in vivo): 0 n
Patients with related Gr3 TEAE: Abdominal pain upper ([2]; female, human, in vivo): 0 n
Patients with related Gr3 TEAE: Arthralgia ([2]; female, human, in vivo): 0 n
Patients with related Gr3 TEAE: Asthenia ([2]; female, human, in vivo): 0 n
Patients with related Gr3 TEAE: Back pain ([2]; female, human, in vivo): 0 n
Patients with related Gr3 TEAE: Constipation ([2]; female, human, in vivo): 0 n
Patients with related Gr3 TEAE: Cough ([2]; female, human, in vivo): 0 n
Patients with related Gr3 TEAE: Decreased appetite ([2]; female, human, in vivo): 0 n
Patients with related Gr3 TEAE: Diarrhea ([2]; female, human, in vivo): 0 n
Patients with related Gr3 TEAE: Dry skin ([2]; female, human, in vivo): 0 n
Patients with related Gr3 TEAE: Dysgeusia ([2]; female, human, in vivo): 0 n
Patients with related Gr3 TEAE: Dyspnoea ([2]; female, human, in vivo): 0 n
Patients with related Gr3 TEAE: Fatigue ([2]; female, human, in vivo): 0 n
Patients with related Gr3 TEAE: Hot flush ([2]; female, human, in vivo): 0 n
Patients with related Gr3 TEAE: Hypertension ([2]; female, human, in vivo): 0 n
Patients with related Gr3 TEAE: Hypoaesthesia ([2]; female, human, in vivo): 0 n
Patients with related Gr3 TEAE: Musculoskeletal chest pain ([2]; female, human, in vivo): 0 n
Patients with related Gr3 TEAE: Myalgia ([2]; female, human, in vivo): 0 n
Patients with related Gr3 TEAE: Nasopharyngitis ([2]; female, human, in vivo): 0 n
Patients with related Gr3 TEAE: Nausea ([2]; female, human, in vivo): 0 n
Patients with related Gr3 TEAE: Night sweat ([2]; female, human, in vivo): 0 n
Patients with related Gr3 TEAE: Pain ([2]; female, human, in vivo): 0 n
Patients with related Gr3 TEAE: Photophobia ([2]; female, human, in vivo): 0 n
Patients with related Gr3 TEAE: Rash ([2]; female, human, in vivo): 0 n
Patients with related Gr3 TEAE: Upper respiratory tract infection ([2]; female, human, in vivo): 0 n
Patients with related Gr3 TEAE: Urinary tract infection ([2]; female, human, in vivo): 0 n
Patients with related Gr3 TEAE: Vomiting ([2]; female, human, in vivo): 0 n
Patients with related TEAE: Cough ([2]; female, human, in vivo): 0 n
Patients with related TEAE: Dysgeusia ([2]; female, human, in vivo): 0 n
Patients with related TEAE: Hypoaesthesia ([2]; female, human, in vivo): 0 n
Patients with related TEAE: Musculoskeletal chest pain ([2]; female, human, in vivo): 0 n
Patients with related TEAE: Nasopharyngitis ([2]; female, human, in vivo): 0 n
Patients with related TEAE: Rash ([2]; female, human, in vivo): 0 n
Patients with related TEAE: Upper respiratory tract infection ([2]; female, human, in vivo): 0 n
serious TEAEs reported ([2]; female, human, in vivo): 4
